Reference: patent publication EP0181592B1, “Use of spergualin derivatives for the preparation of medicaments having immunosuppressive activity” (MICROBIAL CHEMISTRY RESEARCH FOUNDATION, priority 1984, dated 1986)

Legend:
[1] = tested on: Spleen cells from BALB/C mice; test: Inhibition of ConA-induced T-lymphocyte blast genesis (3H-thymidine uptake); type: cell-based; details: for inhibition of the reaction of T-lymphocyte blast genesis (in words): ConA-stimulated; for inhibition at 10 µg/mL / inhibition at 100 µg/mL: Mus musculus, T-lymphocyte, ConA 5 µg/ml, 72 hours; for inhibition at 10 µg/mL: 10 µg/ml compound; for inhibition at 100 µg/mL: 100 µg/ml compound
Method: (§1) Spleen cells from BALB/C mice were distributed among wells in a microplate so that each well contained 2 x 10⁵ cells/0.2 ml. Each of the selected test compounds was added to all wells but one, the latter being used as a control. ConA (5 µg/ml) was added to all the wells and the so prepared cell suspensions were cultivated in a 5% CO₂ incubator for 72 hours at 37°C. Eight hours before the completion of the incubation, 1 µCi of ³H-thymidine was added to each well and the uptake of the thymidine by the cultured cells was measured with a liquid scintillation counter to estimate the progress of reaction of T-lymphocyte blast genesis. The percentage inhibition of the genesis by each of the test compounds was calculated by: (1 - Bdpm/Adpm) x 100 wherein Adpm indicates the uptake count for the addition of ConA alone and Bdpm, the count for the addition of both ConA and the test compound.

[2] = tested on: CDFl mice; test: Inhibition of production of antibodies against sheep red blood cells (plaque-forming spleen cells); type: in vivo; details: 12.5 mg/kg per day intraperitoneally for 3 days; plaque-forming spleen cells counted
Description: The compounds of the formula I exert inhibitory effects on the function of lymphocytes of immunological importance. […] Therefore in vivo experiments have been conducted to examine the effects of the compounds of the formula I on T-lymphocytes. First, in accordance with the method of Lagrange et al. (Lagrange et al., Journal of Experimental Medicine, 139, 528-542, 1974), the compounds of the formula I were examined for their effects on delayed-type hypersensivity in mice that had been sensitized with sheep red blood cells. The delayed-type hypersensivity could be blocked by administering the compound for three consecutive days following the sensitization with sheep red blood cells. Additionally, in accordance with the method of Jerne et al. (Jerne et al., Cell-bound Antibodies, pp. 109-122, 1963), the compounds of the formula I were checked for their effects on the plaque-forming ability of spleen cells from mice sensitized by antigenic sheep red blood cells.
CDFl mice (6-10 wk old, female) were immunized by intravenous injection of 1 x 10⁸ sheep red blood cells. The mice were intraperitoneally administered 12.5 mg/kg per day of selected test compounds for a period of 3 days starting from the day following the intravenous injection. Four days later, spleen cells were isolated from the mice and the number of plaque-forming cells was counted. The percentage inhibition of antibody production was calculated by (1 - B/A) x 100 wherein A is the count for a control group (given physiological saline) and B, for the treated group.

[3] = Toxicity to mice (LD50, single intraperitoneal administration); details: mouse, in vivo, ip, read-out: LD₅₀
Description: The compounds of the formula I are characterized by relatively low toxicity and small accumulation of toxicity upon continuous administration.

[4] = tested on: Mice Sensitized by Sheep Red Blood Cells; test: Inhibition of delayed-type hypersensitivity in mice sensitized by sheep red blood cells (footpad swelling); type: in vivo, CDFl mice; details: relative to saline control = 100%, measured at the 24th hour
Method: CDFl mice (8-wk-old, female) were sensitized by intravenous injection of 1 x 10⁵ sheep red blood cells. Four days later, the sensitized mice were subcutaneously injected in one footpad with 1 x 10⁸ sheep red blood cells so as to induce delayed-type hypersensitivity. The swelling of the footpad was measured at the 24th hour with a micrometer. Each of the test compounds was administered intraperitoneally in the amounts (mg/kg) indicated in Table 3 for a period of 3 days that started on the day following the initial sensitization. The degree of footpad swelling was indicated in relative values, with the value for a control given physiological saline instead of the test compounds being taken as 100%.

[5] = tested on: Spleen cells from BALB/C mice; test: Inhibition of LPS-induced B-lymphocyte blast genesis (3H-thymidine uptake); type: cell-based; details: for suppression of LPS-induced genesis of B-lymphocyte blasts (in words): LPS-stimulated; for inhibition at 10 µg/mL / inhibition at 100 µg/mL: Mus musculus, 100 µg/ml of LPS from E. coli; for inhibition at 10 µg/mL: 10 µg/ml compound; for inhibition at 100 µg/mL: 100 µg/ml compound
Method: as §1
The uptake of ³H-thymidine by B-cell blasts was measured in accordance with the method used in Test Example 2, except that the inducer ConA was replaced by 100 µg/ml of LPS from E. coli. The percentage inhibition of blast genesis by selected test compounds was also determined by the same method as used in Text Example 2.

[6] = 0.20 mg/kg intraperitoneally for 3 days
[7] = 0.78 mg/kg intraperitoneally for 3 days
[8] = 3.13 mg/kg intraperitoneally for 3 days
[9] = 12.5 mg/kg intraperitoneally for 3 days
[10] = 6.25 mg/kg intraperitoneally for 3 days
[11] = 25 mg/kg intraperitoneally for 3 days

| Structure (SMILES) | inhibition of the reaction of T-lymphocyte blast genesis (in words) [1] | inhibition at 10 µg/mL [1] | inhibition at 100 µg/mL [1] | percentage inhibition of antibody production [2] | LD50 [3] | Footpad swelling (%) [4, 6] | Footpad swelling (%) [4, 7] | Footpad swelling (%) [4, 8] | Footpad swelling (%) [4, 9] | suppression of LPS-induced genesis of B-lymphocyte blasts (in words) [5] | inhibition at 10 µg/mL [5] | inhibition at 100 µg/mL [5] | Footpad swelling (%) ([4]; 0.39 mg/kg intraperitoneally for 3 days) | Footpad swelling (%) [4, 10] | Footpad swelling (%) [4, 11] |
| --- | --- | --- | --- | --- | --- | --- | --- | --- | --- | --- | --- | --- | --- | --- | --- |
| N=C(N)NCCCCCCC(=O)NC(O)C(=O)NCCCCNCCCN (centres unmarked) [(1), N-[4-(3-aminopropyl)aminobutyl]-2-(7-guanidinoheptaneamido)-2-hydroxyethaneamide] | strong ability to inhibit | 93% | 100% | 98.5% | 25 to 50 mg/kg | 72% | 87% | 29% | 15% | highly effective in suppressing | 98% | 100% | – | – | – |
| COC(NC(=O)CCCCCCNC(=N)N)C(=O)NCCCCNCCCN (centres unmarked) [(2), N-[4-(3-aminopropyl)aminobutyl]-2-(7-guanidinoheptaneamino)-2-methoxyethaneamide] | – | – | – | 95.9% | 12.5 to 25 mg/kg | 99% | 49% | 5.5% | – | – | – | – | – | – | – |
| N=C(N)NCCCCCCCCC(=O)NC(O)C(=O)NCCCCNCCCN (centres unmarked) [(3), N-[4-(3-aminopropyl)aminobutyl]-2-(9-guanidinononaneamido)-2-hydroxyethaneamide] | – | – | – | – | 12.5 to 25 mg/kg | 55% | 32% | 11% | 6.6% | – | – | – | – | – | – |
| N=C(N)NCCCCCCC(=O)NCC(=O)NCCCCNCCCN [(4), N-[4-(3-aminopropyl)aminobutyl]-2-(7-guanidinoheptaneamido)-ethaneamide] | strong ability to inhibit | 99% | 100% | 89,4% | 12.5 to 25 mg/kg | – | 111% | – | – | highly effective in suppressing | 100% | 100% | 99% | 46% | – |
| N=C(N)NCCCCCCC(=O)N[C@@H](CO)C(=O)NCCCCNCCCN [(5), N-[4-(3-aminopropyl)aminobutyl]-2-(7-guanidinoheptaneamido)-(S)-2-hydroxymethylethaneamide] | strong ability to inhibit | 96% | 100% | 89,4% | 12.5 to 25 mg/kg | 81% | 117% | 58% | – | highly effective in suppressing | 88% | 100% | – | – | – |
| N=C(N)Nc1ccc(CCCC(=O)NCC(=O)NCCCCNCCCN)cc1 [(6), N-[4-(3-aminopropyl)aminobutyl]-2-[4-(p-guanidinophenyl)butaneamido]ethaneamide] | strong ability to inhibit | 99% | 100% | 92,9% | 25 to 50 mg/kg | – | – | – | – | highly effective in suppressing | 96% | 100% | – | 102% | 33% |
| N=C(N)Nc1ccc(CCCC(=O)N[C@@H](CO)C(=O)NCCCCNCCCN)cc1 [(7), N-[4-(3-aminopropyl)aminobutyl]-2-[4-(p-guanidinophenyl)-butaneamido]-(S)-2-hydroxymethylethaneamide] | – | – | – | – | 25 to 50 mg/kg | – | – | – | – | – | – | – | – | 54% | 42% |
| N=C(N)NCc1ccc(CCC(=O)N[C@@H](CO)C(=O)NCCCCNCCCN)cc1 [(8), N-[4-(3-aminopropyl)aminobutyl]-2-[3-(p-guanidinomethylphenyl)propaneamido]-(S)-2-hydroxymethylethaneamide] | strong ability to inhibit | 79% | 100% | – | 25 to 50 mg/kg | – | – | 50% | 20% | – | – | – | – | – | – |
| N=C(N)Nc1ccc(CCCCC(=O)N[C@@H](CO)C(=O)NCCCCNCCCN)cc1 [(9), N-[4-(3-aminopropyl)aminobutyl]-2-[5-(p-guanidinophenyl)-pentaneamido]-(S)-2-hydroxymethylethaneamide] | – | – | – | – | 25 to 50 mg/kg | – | – | 45% | 52% | – | – | – | – | – | – |
| COC(NC(=O)C=CCCCCNC(=N)N)C(=O)NCCCCNCCCN (centres unmarked) [(10), N-[4-(3-aminopropyl)aminobutyl]-2-[7-guanidinohepta-2-enamido]-2-methoxyethaneamide] | – | – | – | – | 25 to 50 mg/kg | – | – | 37% | 6.0% | – | – | – | – | – | – |
| N=C(N)NCCCCC=CC(=O)NC(O)C(=O)NCCCCNCCCN (centres unmarked) [(11), N-[4-(3-aminopropyl)aminobutyl]-2-[7-guanidinohepta-2-enamido]-2-hydroxyethaneamide] | strong ability to inhibit | 88% | 100% | – | 25 to 50 mg/kg | – | – | 40% | 8.5% | highly effective in suppressing | 98% | 100% | – | – | – |
| N=C(N)NCCCC[C@H](O)CC(=O)NC(O)C(=O)NCCCCNCCCN (some centres unmarked) [Spergualin] | – | – | – | – | – | – | – | 106% | 28% | – | – | – | – | – | – |
